This is an account of results in ChEMBL document CHEMBL1129421, “Comparative molecular field analysis of haptens docked to the multispecific antibody IgE(Lb4)” (J Med Chem, 1996).

The structures appear in SMILES notation.

For this test, the system named is Monoclonal antibody (mAb). The test can be described thus: Ability to bind to monoclonal antibody IgE (Lb4), expressed as association constant (LogKA).
For `Nc1ccc(/N=N/c2ccccc2)c(N)n1`, the Log KA was 6.5. Compound `O=C(O)C(CO)Nc1ccc([N+](=O)[O-])cc1[N+](=O)[O-]` (centres undefined) yielded a Log KA of 5.5. In the case of `NC(=O)CCC(Nc1ccc([N+](=O)[O-])cc1[N+](=O)[O-])C(=O)O` (centres undefined) it was 5.08; in that of `CC(Nc1ccc([N+](=O)[O-])cc1[N+](=O)[O-])C(=O)O` (centres undefined), 5.8.

`O=C(O)C(Cc1ccc(O)cc1)Nc1ccc([N+](=O)[O-])cc1[N+](=O)[O-]` (centres undefined) returned a Log KA of 4.85. In the case of `NC(=O)CC(Nc1ccc([N+](=O)[O-])cc1[N+](=O)[O-])C(=O)O` (centres undefined) it was 4.92.

Compound `CC(C)CC(Nc1ccc([N+](=O)[O-])cc1[N+](=O)[O-])C(=O)O` (centres undefined) registered a Log KA of 5.39. In the case of `C[N+](C)(C)CC(O)C[N+](C)(C)C` it was 4.66. With `N=C(N)NCCC[C@H](Nc1ccc([N+](=O)[O-])cc1[N+](=O)[O-])C(=O)O` the figure was 5.04. In turn, `Nc1ccc2ccccc2c1` registered a Log KA of 5.71.

`O=C(O)C1CCCN1c1ccc([N+](=O)[O-])cc1[N+](=O)[O-]` (centres undefined): the Log KA stood at 5.19. In the case of `O=[N+]([O-])c1ccc(O)c([N+](=O)[O-])c1` it was 4.89; in that of `O[C@](CCN1CCCCC1)(c1ccccc1)C1CCCC1`, 4.84; in that of `CC(C)C(Nc1ccc([N+](=O)[O-])cc1[N+](=O)[O-])C(=O)O` (centres undefined), 5.93. In the case of `O=C(CCC(=O)Oc1ccccc1C(=O)O)Oc1ccccc1C(=O)O` it was 4.57.

`O=C(O)c1ccc2ccccc2c1O` came in with a Log KA of 6.71. In the case of `O=C(O)CC(Nc1ccc([N+](=O)[O-])cc1[N+](=O)[O-])C(=O)O` (centres undefined) it was 5.5; in that of `O=C(O)c1cccc(C(=O)O)c1C(=O)O`, 4.77. With `O[C@@](CCN1CCCCC1)(c1ccccc1)C1CCCC1` the figure was 4.84. Compound `O=C(O)C(Cc1c[nH]c2ccccc12)Nc1ccc([N+](=O)[O-])cc1[N+](=O)[O-]` (centres undefined) gave a Log KA of 5.93.

With `CC(O)C(Nc1ccc([N+](=O)[O-])cc1[N+](=O)[O-])C(=O)O` (centres undefined), the Log KA was found to be 5.49. On to `Cc1ccc(O)c(C(=O)O)c1`, for which the Log KA was 5.38. In the case of `CSCCC(Nc1ccc([N+](=O)[O-])cc1[N+](=O)[O-])C(=O)O` (centres undefined) it was 5.72.

As for `O=C(O)C(Cc1ccccc1)Nc1ccc([N+](=O)[O-])cc1[N+](=O)[O-]` (centres undefined), the Log KA came to 5.78. In the case of `O=C(O)CNc1ccc([N+](=O)[O-])cc1[N+](=O)[O-]` it was 4.9. In the case of `CC(=O)Nc1nnc(S(N)(=O)=O)s1` it was 5; in that of `N[C@@H](CCCCNc1ccc([N+](=O)[O-])cc1[N+](=O)[O-])C(=O)O`, 4.38. With `O=C(O)CCC(Nc1ccc([N+](=O)[O-])cc1[N+](=O)[O-])C(=O)O` (centres undefined) the figure was 4.63; with `N#C/C(=C\c1ccccc1)C(=O)O`, 5.04.
